Laboratory results from BindingDB's records for doi:10.1016/0024-3205(90)90472-4 (University of Arizona, 1990).

Molecular target: T1, Muscarinic acetylcholine receptor M2 (Rattus norvegicus, UniProt P10980)
T1 sequence (P10980 whole entry): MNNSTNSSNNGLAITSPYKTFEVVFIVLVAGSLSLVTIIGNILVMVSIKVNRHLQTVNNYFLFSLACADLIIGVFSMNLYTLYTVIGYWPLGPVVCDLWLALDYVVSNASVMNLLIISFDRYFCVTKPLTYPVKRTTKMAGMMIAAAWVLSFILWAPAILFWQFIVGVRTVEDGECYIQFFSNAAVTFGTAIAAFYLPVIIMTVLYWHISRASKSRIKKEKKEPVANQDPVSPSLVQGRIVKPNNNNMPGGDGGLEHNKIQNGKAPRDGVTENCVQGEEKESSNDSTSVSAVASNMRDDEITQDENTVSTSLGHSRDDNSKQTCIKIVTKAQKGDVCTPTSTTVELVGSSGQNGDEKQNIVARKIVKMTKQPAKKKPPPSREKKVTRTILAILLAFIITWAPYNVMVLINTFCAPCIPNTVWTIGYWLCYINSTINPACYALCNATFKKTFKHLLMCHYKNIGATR

Work on `C[C@H]1OC(=O)C2C[C@H]3CCCC[C@@H]3[C@@H](/C=C/[C@@H]3CCC[C@H](C)N3C)C21` (stereo partly specified) [HIMBACINE] yielded a Ki of 10.2 nM.
